Measured values: the supplement of paper PMC13380429

What was measured:
[1] = tested on: A549-ACE2 infected with SARS-CoV-2; test: cell count relative to DMSO; higher = less toxic; settings: 24 h
[2] = tested on: Caco-2; test: cell viability relative to DMSO; higher = less toxic; settings: 72 h
[3] = tested on: Calu-3; test: as above; settings: 72 h
[4] = tested on: HepG2; test: as above; settings: 72 h
[5] = tested on: U2OS; test: as above; settings: 72 h
[6] = tested on: Vero E6; test: as above; settings: 72 h
[7] = tested on: A549-ACE2 infected with SARS-CoV-2; test: SARS-CoV-2 infection rate relative to DMSO; higher = more infection; settings: 24 h
[8] = tested on: A549-ACE2; test: drug-induced phospholipidosis relative to tamoxifen; higher = more phospholipidosis
[9] = tested on: A549-ACE2 infected with SARS-CoV-2; test: morphology score (similarity to uninfected cells); higher = more like uninfected cells; settings: 24 h
[10] = tested on: Caco-2; test: relative viability EC50 (midpoint between 100% and the lowest measured viability); higher = less toxic; settings: 72 h
[11] = tested on: Calu-3; test: as above; settings: 72 h
[12] = tested on: HepG2; test: as above; settings: 72 h
[13] = tested on: U2OS; test: as above; settings: 72 h
[14] = tested on: Vero E6; test: as above; settings: 72 h
[15] = tested on: Caco-2; test: drug sensitivity score (DSS) for viability; higher = more toxic; extreme values may be limits of the assay; settings: 72 h
[16] = tested on: Calu-3; test: as above; settings: 72 h
[17] = tested on: HepG2; test: as above; settings: 72 h
[18] = tested on: U2OS; test: as above; settings: 72 h
[19] = tested on: Vero E6; test: as above; settings: 72 h
[20] = tested on: A549-ACE2; test: phospholipidosis EC50; higher = less potent phospholipidosis inducer

CC(C)C[C@H](NC(=O)CNC(=O)c1cc(Cl)ccc1Cl)B(O)O [ixazomib]
Settings | SARS-CoV-2 infection rate, [7] [%] | cell count, [1] [%] | cell viability, [2] [%] | cell viability, [3] [%] | cell viability, [4] [%] | cell viability, [5] [%] | cell viability, [6] [%] | morphology score, [9]
1 nM | – | – | 86.9 | 90 | 107 | 95.9 | 97.4 | –
10 nM | – | – | 102 | 99 | 105 | 93.4 | 99.3 | –
0.1 µM | 99 | 90 | – | – | – | – | – | 0.03
100 nM | – | – | 24.4 | 35.8 | 99.5 | 84.5 | 78.5 | –
0.3 µM | 98 | 80 | – | – | – | – | – | 0.25
1 µM | 64 | 72 | – | – | – | – | – | 0.26
1000 nM | – | – | 4.7 | 5.8 | 7.7 | 1.3 | 11.5 | –
3 µM | 46 | 59 | – | – | – | – | – | 0.26
10000 nM | – | – | 7.3 | 5.7 | 0.6 | -0.1 | 3.7 | –

[8], 0.3 µM
Settings | drug-induced phospholipidosis [%]
24 h | -5.63
48 h | -3.87
72 h | -1.4

Settings | drug sensitivity score | relative viability EC50 [nM]
[10] | – | 58.8
[11] | – | 71.4
[12] | – | 383
[13] | – | 197
[14] | – | 218
[15] | 25.9 | –
[16] | 24.6 | –
[17] | 16.8 | –
[18] | 20.5 | –
[19] | 18.9 | –

O=C(NC1CCN(CCCCC2(C(=O)NCC(F)(F)F)c3ccccc3-c3ccccc32)CC1)c1ccccc1-c1ccc(C(F)(F)F)cc1 [lomitapide]
Settings | SARS-CoV-2 infection rate [%] | cell count [%] | cell viability [%] | morphology score | phospholipidosis EC50 [nM]
[1], 0.1 µM | – | 96 | – | – | –
[1], 0.3 µM | – | 104 | – | – | –
[1], 1 µM | – | 108 | – | – | –
[1], 3 µM | – | 119 | – | – | –
[2], 1 nM | – | – | 101 | – | –
[2], 10 nM | – | – | 103 | – | –
[2], 100 nM | – | – | 103 | – | –
[2], 1000 nM | – | – | 103 | – | –
[2], 10000 nM | – | – | 11.8 | – | –
[3], 1 nM | – | – | 101 | – | –
[3], 10 nM | – | – | 100 | – | –
[3], 100 nM | – | – | 98.4 | – | –
[3], 1000 nM | – | – | 109 | – | –
[3], 10000 nM | – | – | 1.2 | – | –
[4], 1 nM | – | – | 108 | – | –
[4], 10 nM | – | – | 106 | – | –
[4], 100 nM | – | – | 106 | – | –
[4], 1000 nM | – | – | 100 | – | –
[4], 10000 nM | – | – | -0.5 | – | –
[5], 1 nM | – | – | 101 | – | –
[5], 10 nM | – | – | 110 | – | –
[5], 100 nM | – | – | 104 | – | –
[5], 1000 nM | – | – | 106 | – | –
[5], 10000 nM | – | – | 1.2 | – | –
[6], 1 nM | – | – | 102 | – | –
[6], 10 nM | – | – | 104 | – | –
[6], 100 nM | – | – | 96 | – | –
[6], 1000 nM | – | – | 97.8 | – | –
[6], 10000 nM | – | – | -0.6 | – | –
[7], 0.1 µM | 98 | – | – | – | –
[7], 0.3 µM | 93 | – | – | – | –
[7], 1 µM | 72 | – | – | – | –
[7], 3 µM | 12 | – | – | – | –
[9], 0.1 µM | – | – | – | -0.14 | –
[9], 0.3 µM | – | – | – | 0.12 | –
[9], 1 µM | – | – | – | 0.6 | –
[9], 3 µM | – | – | – | 0.91 | –
[20], 24 h | – | – | – | – | 898
[20], 48 h | – | – | – | – | 1800
[20], 72 h | – | – | – | – | 2500

drug-induced phospholipidosis [%], [8]
Settings | 0.3 µM | 0.833333 µM | 3.33333 µM | 6.66667 µM | 10 µM | 30 µM
24 h | 11.9 | 29.7 | 81 | 81.2 | 40.9 | 49.8
48 h | 15.5 | 36 | 91.1 | 108 | – | –
72 h | 12.7 | 28.5 | 83.5 | 131 | – | –

Settings | drug sensitivity score | relative viability EC50 [nM]
[10] | – | 3380
[11] | – | 3610
[12] | – | 3140
[13] | – | 3460
[14] | – | 2970
[15] | 4.6 | –
[16] | 4.9 | –
[17] | 5.6 | –
[18] | 5.1 | –
[19] | 5.9 | –
